Test results from PubChem BioAssay (NCI).
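Five compound concentrations were applied to cells in 96-well plates for 48 hours; endpoints were derived by simple linear interpolation of the resulting dose-response curve. TGI denotes the concentration required for complete inhibition of growth.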

Experiments:
Test in all cases: NCI anticancer screen, dose series, 48 h
786-0 renal = test system: 786-0 renal
SNB-75 CNS = test system: SNB-75 CNS
MDA-N = test system: MDA-N
MDA-MB-435 = test system: MDA-MB-435
NCI-H460 lung = test system: NCI-H460 lung
MDA-MB-231 breast = test system: MDA-MB-231 breast
NCI-H522 lung = test system: NCI-H522 lung
MALME-3M melanoma = test system: MALME-3M melanoma
OVCAR-5 ovarian = test system: OVCAR-5 ovarian
SK-MEL-5 melanoma = test system: SK-MEL-5 melanoma
TK-10 renal = test system: TK-10 renal
PC-3 prostate = test system: PC-3 prostate
A549 NSCLC = test system: A549 NSCLC
HS 578T breast = test system: HS 578T breast
CCRF-CEM leukemia = test system: CCRF-CEM leukemia
OVCAR-4 ovarian = test system: OVCAR-4 ovarian
OVCAR-3 ovarian = test system: OVCAR-3 ovarian
UO-31 renal = test system: UO-31 renal
SW-620 colon = test system: SW-620 colon
KM12 colon = test system: KM12 colon
HCC-2998 colon = test system: HCC-2998 colon
M14 melanoma = test system: M14 melanoma
SF-295 CNS = test system: SF-295 CNS
HCT-15 colon = test system: HCT-15 colon
A498 renal = test system: A498 renal
NCI-H23 lung = test system: NCI-H23 lung
RPMI-8226 leukemia = test system: RPMI-8226 leukemia
HOP-92 NSCLC = test system: HOP-92 NSCLC
NCI-H226 lung = test system: NCI-H226 lung
U251 CNS = test system: U251 CNS
T-47D breast = test system: T-47D breast
SF-539 CNS = test system: SF-539 CNS
HOP-62 NSCLC = test system: HOP-62 NSCLC
LOX IMVI melanoma = test system: LOX IMVI melanoma
MOLT-4 leukemia = test system: MOLT-4 leukemia
RXF 393 renal = test system: RXF 393 renal
SF-268 CNS = test system: SF-268 CNS
SK-MEL-2 melanoma = test system: SK-MEL-2 melanoma
SK-OV-3 ovarian = test system: SK-OV-3 ovarian
IGROV1 ovarian = test system: IGROV1 ovarian
MCF7 breast = test system: MCF7 breast
HL-60(TB) leukemia = test system: HL-60(TB) leukemia
UACC-62 melanoma = test system: UACC-62 melanoma
EKVX NSCLC = test system: EKVX NSCLC
DU-145 prostate = test system: DU-145 prostate
CAKI-1 renal = test system: CAKI-1 renal
BT-549 breast = test system: BT-549 breast
SN12C renal = test system: SN12C renal
SR leukemia = test system: SR leukemia
OVCAR-8 ovarian = test system: OVCAR-8 ovarian
NCI/ADR-RES ovarian = test system: NCI/ADR-RES ovarian
ACHN renal = test system: ACHN renal
SK-MEL-28 melanoma = test system: SK-MEL-28 melanoma
HCT-116 colon = test system: HCT-116 colon
COLO 205 colon = test system: COLO 205 colon
HT29 colon = test system: HT29 colon
UACC-257 melanoma = test system: UACC-257 melanoma
K-562 leukemia = test system: K-562 leukemia
SNB-19 CNS = test system: SNB-19 CNS

With `Cc1ccc(N=Nc2c(C)nn(C(=O)CC(=O)Nc3ccccc3)c2C)cc1C` the TGI (786-0 renal) was > 100 µM, the TGI (SNB-75 CNS) was > 100 µM and the TGI (MDA-N) was > 100 µM. The TGI (MDA-MB-435) was > 100 µM, the TGI (NCI-H460 lung) was > 100 µM and the TGI (MDA-MB-231 breast) was > 100 µM. For the same compound, the TGI (NCI-H522 lung) was > 100 µM, the TGI (MALME-3M melanoma) was > 100 µM and the TGI (OVCAR-5 ovarian) was > 100 µM. The TGI (SK-MEL-5 melanoma) was > 100 µM, the TGI (TK-10 renal) was > 100 µM and the TGI (PC-3 prostate) was > 100 µM. For the same compound, the TGI (A549 NSCLC) was > 100 µM, the TGI (HS 578T breast) was > 100 µM and the TGI (CCRF-CEM leukemia) was > 100 µM. For the same compound, the TGI (OVCAR-4 ovarian) was > 100 µM, the TGI (OVCAR-3 ovarian) was > 100 µM and the TGI (UO-31 renal) was > 100 µM. For the same compound, the TGI (SW-620 colon) was > 100 µM, the TGI (KM12 colon) was > 100 µM and the TGI (HCC-2998 colon) was > 100 µM. The TGI (M14 melanoma) was > 100 µM, the TGI (SF-295 CNS) was > 100 µM and the TGI (HCT-15 colon) was > 100 µM. For the same compound, the TGI (A498 renal) was > 100 µM, the TGI (NCI-H23 lung) was > 100 µM and the TGI (RPMI-8226 leukemia) was > 100 µM. For the same compound, the TGI (HOP-92 NSCLC) was > 100 µM, the TGI (NCI-H226 lung) was > 100 µM and the TGI (U251 CNS) was > 100 µM. For the same compound, the TGI (T-47D breast) was > 100 µM, the TGI (SF-539 CNS) was > 100 µM and the TGI (HOP-62 NSCLC) was > 100 µM. For the same compound, the TGI (LOX IMVI melanoma) was > 100 µM, the TGI (MOLT-4 leukemia) was > 100 µM and the TGI (RXF 393 renal) was > 100 µM. For the same compound, the TGI (SF-268 CNS) was > 100 µM, the TGI (SK-MEL-2 melanoma) was > 100 µM and the TGI (SK-OV-3 ovarian) was > 100 µM. For the same compound, the TGI (IGROV1 ovarian) was > 100 µM, the TGI (MCF7 breast) was > 100 µM and the TGI (HL-60(TB) leukemia) was > 100 µM. For the same compound, the TGI (UACC-62 melanoma) was > 100 µM, the TGI (EKVX NSCLC) was > 100 µM and the TGI (DU-145 prostate) was > 100 µM. The TGI (CAKI-1 renal) was > 100 µM, the TGI (BT-549 breast) was > 100 µM and the TGI (SN12C renal) was > 100 µM. For the same compound, the TGI (SR leukemia) was > 100 µM, the TGI (OVCAR-8 ovarian) was > 100 µM and the TGI (NCI/ADR-RES ovarian) was > 100 µM. The TGI (ACHN renal) was > 100 µM, the TGI (SK-MEL-28 melanoma) was > 100 µM and the TGI (HCT-116 colon) was > 100 µM. For the same compound, the TGI (COLO 205 colon) was > 100 µM and the TGI (HT29 colon) was > 100 µM.
`Cc1cc2c(cc1Cl)Sc1nnc(Nc3ccccc3)n1S2(=O)=O` gave a TGI (786-0 renal) of 19.1 µM, a TGI (SNB-75 CNS) of 23.7 µM and a TGI (MDA-N) of 31.2 µM. For the same compound, the TGI (MDA-MB-435) was 54.8 µM, the TGI (NCI-H460 lung) was 33.2 µM and the TGI (MDA-MB-231 breast) was 49.9 µM. The TGI (NCI-H522 lung) was 14.2 µM, the TGI (OVCAR-5 ovarian) was > 100 µM and the TGI (SK-MEL-5 melanoma) was 53.8 µM. It also gave a TGI (TK-10 renal) of 43.6 µM, a TGI (PC-3 prostate) of 22.1 µM and a TGI (A549 NSCLC) of 32.7 µM. It also gave a TGI (HS 578T breast) of 12.6 µM, a TGI (OVCAR-4 ovarian) of 32 µM and a TGI (OVCAR-3 ovarian) of 7.1 µM. The TGI (UO-31 renal) was 41.8 µM, the TGI (SW-620 colon) was > 100 µM and the TGI (KM12 colon) was 57.5 µM. It also gave a TGI (HCC-2998 colon) of 14.2 µM, a TGI (M14 melanoma) of 60.1 µM and a TGI (SF-295 CNS) of 49.6 µM. It also gave a TGI (HCT-15 colon) of 28.9 µM, a TGI (A498 renal) of 33.8 µM and a TGI (NCI-H23 lung) of 15.9 µM. For the same compound, the TGI (UACC-257 melanoma) was 61.2 µM, the TGI (RPMI-8226 leukemia) was 6.91 µM and the TGI (HOP-92 NSCLC) was 28.8 µM. For the same compound, the TGI (NCI-H226 lung) was 10.7 µM, the TGI (U251 CNS) was 19.1 µM and the TGI (T-47D breast) was 57.3 µM. The TGI (SF-539 CNS) was 14.2 µM, the TGI (HOP-62 NSCLC) was 15 µM and the TGI (K-562 leukemia) was > 100 µM. It also gave a TGI (LOX IMVI melanoma) of 18.7 µM, a TGI (MOLT-4 leukemia) of 13.5 µM and a TGI (RXF 393 renal) of 24.2 µM. The TGI (SF-268 CNS) was 11 µM, the TGI (SK-MEL-2 melanoma) was 21.2 µM and the TGI (IGROV1 ovarian) was 54.6 µM. For the same compound, the TGI (MCF7 breast) was 32.4 µM, the TGI (HL-60(TB) leukemia) was 16.4 µM and the TGI (EKVX NSCLC) was 34.3 µM. For the same compound, the TGI (DU-145 prostate) was > 100 µM, the TGI (CAKI-1 renal) was 53.8 µM and the TGI (BT-549 breast) was 34 µM. The TGI (SR leukemia) was 13.6 µM, the TGI (OVCAR-8 ovarian) was 20.8 µM and the TGI (NCI/ADR-RES ovarian) was 23.4 µM. For the same compound, the TGI (ACHN renal) was 30.3 µM, the TGI (SK-MEL-28 melanoma) was 70.9 µM and the TGI (HCT-116 colon) was 37.1 µM. The TGI (HT29 colon) was > 100 µM.
For `O=P(O)(CCP(=O)(O)c1ccccc1)c1ccccc1`, the TGI (786-0 renal) was > 100 µM, the TGI (SNB-75 CNS) was > 100 µM and the TGI (MDA-N) was > 100 µM. For the same compound, the TGI (MDA-MB-435) was > 100 µM, the TGI (NCI-H460 lung) was > 100 µM and the TGI (MDA-MB-231 breast) was > 100 µM. For the same compound, the TGI (NCI-H522 lung) was > 100 µM, the TGI (MALME-3M melanoma) was > 100 µM and the TGI (OVCAR-5 ovarian) was > 100 µM. For the same compound, the TGI (SK-MEL-5 melanoma) was > 100 µM, the TGI (TK-10 renal) was > 100 µM and the TGI (PC-3 prostate) was > 100 µM. For the same compound, the TGI (A549 NSCLC) was > 100 µM, the TGI (HS 578T breast) was > 100 µM and the TGI (CCRF-CEM leukemia) was > 100 µM. For the same compound, the TGI (OVCAR-4 ovarian) was > 100 µM, the TGI (OVCAR-3 ovarian) was > 100 µM and the TGI (UO-31 renal) was > 100 µM. The TGI (SW-620 colon) was > 100 µM, the TGI (KM12 colon) was > 100 µM and the TGI (HCC-2998 colon) was > 100 µM. The TGI (M14 melanoma) was > 100 µM, the TGI (SF-295 CNS) was > 100 µM and the TGI (HCT-15 colon) was > 100 µM. The TGI (A498 renal) was > 100 µM, the TGI (NCI-H23 lung) was > 100 µM and the TGI (UACC-257 melanoma) was > 100 µM. For the same compound, the TGI (RPMI-8226 leukemia) was > 100 µM, the TGI (HOP-92 NSCLC) was > 100 µM and the TGI (NCI-H226 lung) was > 100 µM. The TGI (U251 CNS) was > 100 µM, the TGI (T-47D breast) was > 100 µM and the TGI (SF-539 CNS) was > 100 µM. For the same compound, the TGI (HOP-62 NSCLC) was > 100 µM, the TGI (K-562 leukemia) was > 100 µM and the TGI (LOX IMVI melanoma) was > 100 µM. For the same compound, the TGI (MOLT-4 leukemia) was > 100 µM, the TGI (RXF 393 renal) was > 100 µM and the TGI (SF-268 CNS) was > 100 µM. The TGI (SK-MEL-2 melanoma) was > 100 µM, the TGI (SK-OV-3 ovarian) was > 100 µM and the TGI (IGROV1 ovarian) was > 100 µM. The TGI (SNB-19 CNS) was > 100 µM, the TGI (MCF7 breast) was > 100 µM and the TGI (HL-60(TB) leukemia) was > 100 µM. For the same compound, the TGI (UACC-62 melanoma) was > 100 µM, the TGI (EKVX NSCLC) was > 100 µM and the TGI (DU-145 prostate) was > 100 µM. For the same compound, the TGI (CAKI-1 renal) was > 100 µM, the TGI (BT-549 breast) was > 100 µM and the TGI (SN12C renal) was > 100 µM. The TGI (SR leukemia) was > 100 µM, the TGI (OVCAR-8 ovarian) was > 100 µM and the TGI (NCI/ADR-RES ovarian) was > 100 µM. For the same compound, the TGI (ACHN renal) was > 100 µM, the TGI (SK-MEL-28 melanoma) was > 100 µM and the TGI (HCT-116 colon) was > 100 µM. For the same compound, the TGI (COLO 205 colon) was > 100 µM and the TGI (HT29 colon) was > 100 µM.
